“Also recorded” adds a separate entry of the source.
Tests used:
[1] = system: Timothy syndrome cardiomyocytes; experiment: Contraction assay with Matlab-based analysis and calcium imaging (Roscovitine analog and CDK inhibitor tests); assay type: cell-based, human; details: two rounds: cardiomyocyte clusters 24 hours, intact monolayer 2 hours after treatment; 5 μM, (R)-CR8 1 or 2 μM
Experimental: Two rounds of chemical tests were conducted to test the compounds. The first round of chemical test was conducted using Timothy syndrome cardiomyocyte clusters isolated from the monolayer cardiomyocytes to screen the compounds efficiently and to identify the positive compounds that could increase the spontaneous beating rate and decrease the contraction irregularity of the Timothy syndrome cardiomyocyte clusters (FIG. 1C).
The working solution of each compound was made by diluting the stock solution in our cardiomyocyte culture media to a final concentration of 5 μM except for (R)-CR8, which was diluted to a final concentration of 1 or 2 μM. The contraction analysis was performed as reported previously (Yazawa et al., 2011). The movies were taken before the treatment, and 24 hours after the treatment of each compound from the Timothy syndrome cardiomyocyte clusters isolated from the monolayer cardiomyocytes for the first round of test. The movies were taken before the treatment, and 2 hours after the treatment of each positive compound on the intact monolayer Timothy syndrome cardiomyocytes for the second round of test. The contraction rate and the irregularity of each sample before and after treatment were compared using paired Student t-test.

CDK5/p35 = biological target: T1, CDK5/p35 (Homo sapiens, UniProt Q00535); experiment: In vitro kinase assay (ADP-Glo luminescence); assay type: biochemical; details: wild-type II-III loop or C-term of Cav1.2 as substrates
T1 construct: purchased Promega V3271
T1 sequence (Q00535 whole entry): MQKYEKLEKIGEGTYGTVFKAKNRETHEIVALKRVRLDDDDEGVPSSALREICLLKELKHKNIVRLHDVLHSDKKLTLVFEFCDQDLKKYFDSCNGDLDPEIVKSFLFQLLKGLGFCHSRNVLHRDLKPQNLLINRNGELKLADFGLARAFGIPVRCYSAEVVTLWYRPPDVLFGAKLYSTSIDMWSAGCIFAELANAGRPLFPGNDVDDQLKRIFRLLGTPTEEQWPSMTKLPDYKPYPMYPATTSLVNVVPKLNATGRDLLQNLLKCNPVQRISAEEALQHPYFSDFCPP
T1 sequence (Q15078 whole entry partner): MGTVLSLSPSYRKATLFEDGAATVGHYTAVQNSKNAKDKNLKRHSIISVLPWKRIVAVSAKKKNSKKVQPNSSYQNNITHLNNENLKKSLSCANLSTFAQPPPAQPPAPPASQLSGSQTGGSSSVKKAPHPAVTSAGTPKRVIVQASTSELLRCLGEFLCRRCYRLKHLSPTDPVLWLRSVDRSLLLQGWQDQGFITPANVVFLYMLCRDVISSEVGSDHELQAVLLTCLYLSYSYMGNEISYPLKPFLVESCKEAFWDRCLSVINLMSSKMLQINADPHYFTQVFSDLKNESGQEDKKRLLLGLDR
From the text: To determine whether CDK5 phosphorylates Cav1.2, an in vitro kinase assay was designed. The wild-type II-III loop or the C-term of Cav1.2 was used as the substrates in this assay. Mutant II-III loop and mutant C-term constructs were generated with substitutions of serine/threonine to glycine or alanine in all CDK5 consensus sequences as negative controls. The phosphorylation of the substrates by CDK5 consumes ATP and produces ADP, which is then converted into luminescence by detection reagents in the assay (FIG. 3D). The luminescence signal was reduced when the CDK5 inhibitor, PHA-793887 was added to the reactions using wild-type II-III loop or C-term as the substrates. […]
To prepare the substrates, the HEK 293T cells were transfected with the plasmid containing either the FLAG-tagged wild-type II-III loop or mutant II-III loop or wild-type C-terminus or mutant C-terminus using Lipofectamine 2000 (Thermo Fisher Scientific) following the manufacturer's protocol 24 hours after plating. […] A series of samples for a standard curve were prepared based on the manufacturer's instructions to determine the ATP-ADP conversion from the luminescence signals in every round of experiment. […] 20 ul of the samples from each tube was then transferred into a 96 well microplate and the luminescence was measured with the GloMax® 96 Microplate Luminometer (Promega).

Cav1.2 channels = experiment: Voltage-clamp recordings of Ba2+ currents (voltage-dependent inactivation of Cav1.2); assay type: cell-based, human; details: TS cardiomyocytes with CDK5 DN expression; 5 μM, 3 min
Experimental: The Timothy syndrome and control iPSCs were differentiated into cardiomyocytes following a protocol reported previously (Song et al., 2015) and infected with the lentiviruses at day 19-21 or day 25-27 after cardiac differentiation. The cardiomyocytes were dissociated into single cells for whole-cell patch-clamp recordings at day 31. Whole-cell patch-clamp recordings of iPSC-derived cardiomyocytes were conducted using a MultiClap 700B patch-clamp amplifier (Molecular Devices) and an inverted microscope equipped with differential interface optics (Nikon, Ti-U). The glass pipettes were prepared using borosilicate glass (Sutter Instrument, BF150-110-10) using a micropipette puller (Sutter Instrument, Model P-97). Voltage-clamp measurements were conducted using an extracellular solution consisting of 5 mM BaCl2, 160 mM TEA and 10 mM HEPES (pH7.4 at 25° C.) and a pipette solution of 125 mM CsCl, 0.1 mM CaCl2, 10 mM EGTA, 1 mM MgCl2, 4 mM MgATP and 10 mM HEPES (pH 7.4 with CsOH at 25° C.). Two pulse protocols were used. One protocol was that cells were held at −90 mV and then depolarized to −10 mV for 400 ms at a rate of 0.1 Hz for the Ba^2+ current recordings. […] Recorded action potentials were analyzed using Clampfit 10.4 (Axon Instruments).

[2] = system: TS cardiomyocytes derived from hiPSCs; details: high dose; cited from earlier work
[3] = system: Cav1.2 with Timothy syndrome mutation; details: heterologous over-expression system; cited from earlier work
[4] = withdrawn from US market in 2000; cited from earlier work

CC[C@H](CO)Nc1nc(NCc2ccc(-c3ccccn3)cc2)c2ncn(C(C)C)c2n1 [CR8]
effects on Timothy syndrome cardiomyocytes (spontaneous beating rate, contraction irregularity) [1]: beneficial effects

COc1ccc(CNc2nc(NCc3ccc(OC)cc3)c3ncn(C4CCCCC4)c3n2)cc1 [Myoseverin B]
effects on Timothy syndrome cardiomyocytes (spontaneous beating rate, contraction irregularity) [1]: beneficial effects

CC(C)CC(=O)Nc1[nH]nc2c1CN(C(=O)C1CCN(C)CC1)C2(C)C [PHA-793887]
effects on Timothy syndrome cardiomyocytes (spontaneous beating rate, contraction irregularity) [1]: beneficial effects | luminescence signal (phosphorylation of substrate by CDK5) (CDK5/p35): reduced; also recorded: blocked the phosphorylation

CC[C@H](CO)Nc1nc(NCc2ccccc2)c2ncn(C(C)C)c2n1 [Roscovitine]
voltage-dependent inactivation of Cav1.2 (Cav1.2 channels): did not further enhance; also recorded: did not significantly enhance | cardiac phenotypes of TS cardiomyocytes [2]: rescue the cardiac phenotypes | voltage-dependent inactivation of Cav1.2 with Timothy syndrome mutation [3]: enhance the voltage-dependent inactivation

COc1cc(N)c(Cl)cc1C(=O)NC1CCN(CCCOc2ccc(F)cc2)CC1OC (centres unmarked) [cisapride]
side effect [4]: QT prolongation

From patent US20200188469A1, “COMPOUNDS AND METHODS FOR INHIBITING CDK5 ALLEVIATE CARDIAC PHENOTYPES IN TIMOTHY SYNDROME AND RELATED CONDITIONS” (priority 2017, published 2020)
